In patent US20060045953A1 (priority 2004, published 2006):

The compounds below were run against T1, hT1R2/hT1R3 sweet receptor (Homo sapiens, UniProt Q7RTX0+Q8TE23) (assay: In vitro hT1R2/hT1R3 sweet taste receptor activation assay (FLIPR, dose response)). Conditions: Table E, Sweet Enhancer Amides; read-out: Sweet EC50.
T1 construct: expressed in transfected cells; host or cells: HEK293 derivative stably expressing Gα15, clone S-9
T1 sequence (Q8TE23 20-839): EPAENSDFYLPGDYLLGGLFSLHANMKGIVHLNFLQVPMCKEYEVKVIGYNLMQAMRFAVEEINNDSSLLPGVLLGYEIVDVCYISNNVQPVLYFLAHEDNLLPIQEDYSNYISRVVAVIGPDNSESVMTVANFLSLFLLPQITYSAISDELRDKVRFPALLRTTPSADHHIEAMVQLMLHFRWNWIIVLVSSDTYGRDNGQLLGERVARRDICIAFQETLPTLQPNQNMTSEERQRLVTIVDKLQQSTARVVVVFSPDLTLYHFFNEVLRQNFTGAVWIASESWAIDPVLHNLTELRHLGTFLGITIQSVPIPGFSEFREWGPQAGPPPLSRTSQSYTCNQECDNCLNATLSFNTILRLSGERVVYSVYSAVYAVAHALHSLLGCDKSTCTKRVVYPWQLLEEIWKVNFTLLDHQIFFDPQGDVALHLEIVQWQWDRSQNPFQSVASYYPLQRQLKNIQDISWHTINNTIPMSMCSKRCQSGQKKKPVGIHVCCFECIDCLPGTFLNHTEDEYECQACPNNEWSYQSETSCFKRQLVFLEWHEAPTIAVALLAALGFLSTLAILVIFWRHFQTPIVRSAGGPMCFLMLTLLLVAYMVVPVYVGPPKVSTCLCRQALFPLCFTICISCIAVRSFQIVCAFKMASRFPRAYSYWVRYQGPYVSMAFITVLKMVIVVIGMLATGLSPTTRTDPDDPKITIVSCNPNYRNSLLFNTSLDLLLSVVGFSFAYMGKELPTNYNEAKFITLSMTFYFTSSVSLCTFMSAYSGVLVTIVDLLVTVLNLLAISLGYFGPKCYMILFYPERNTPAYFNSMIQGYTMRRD
T1 sequence (Q7RTX0 21-852): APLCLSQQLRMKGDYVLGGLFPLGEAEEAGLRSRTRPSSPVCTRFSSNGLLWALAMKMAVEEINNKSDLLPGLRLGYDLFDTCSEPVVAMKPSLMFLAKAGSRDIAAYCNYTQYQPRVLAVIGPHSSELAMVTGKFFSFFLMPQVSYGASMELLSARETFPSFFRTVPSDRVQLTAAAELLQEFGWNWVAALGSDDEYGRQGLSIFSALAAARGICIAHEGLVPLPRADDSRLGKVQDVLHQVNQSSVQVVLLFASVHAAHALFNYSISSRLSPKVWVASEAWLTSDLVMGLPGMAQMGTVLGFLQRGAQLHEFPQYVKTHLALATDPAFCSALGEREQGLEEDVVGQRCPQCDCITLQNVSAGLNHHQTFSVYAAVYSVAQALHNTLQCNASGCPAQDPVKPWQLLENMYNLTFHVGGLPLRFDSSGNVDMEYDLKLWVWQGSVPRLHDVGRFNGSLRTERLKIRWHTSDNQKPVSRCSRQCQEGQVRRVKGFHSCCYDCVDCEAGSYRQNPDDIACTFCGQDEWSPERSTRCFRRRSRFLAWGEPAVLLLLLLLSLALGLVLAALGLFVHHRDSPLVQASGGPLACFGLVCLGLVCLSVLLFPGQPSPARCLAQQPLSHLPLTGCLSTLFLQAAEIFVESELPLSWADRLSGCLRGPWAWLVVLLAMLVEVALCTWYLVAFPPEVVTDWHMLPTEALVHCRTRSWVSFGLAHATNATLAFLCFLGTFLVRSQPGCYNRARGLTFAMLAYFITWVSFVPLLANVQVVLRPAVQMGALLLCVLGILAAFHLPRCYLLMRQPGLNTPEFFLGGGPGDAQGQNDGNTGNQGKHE
Type: cell-based
Protocol: Activity was determined using an automated fluorometric imaging assay on a FLIPR instrument (Fluorometric Intensity Plate Reader, Molecular Devices, Sunnyvale, Calif.) (designated FLIPR assay). […] S-9 cells were grown for 24 hours at 37° C. S-9 cells were then loaded with the calcium dye Fluo-3AM (Molecular Probes, Eugene, Oreg.), 4 µM in a phosphate buffered saline (D-PBS) (Invitrogen, Carlsbad, Calif.), for 1 hour at room temperature. After replacement with 25 µl D-PBS, stimulation was performed in the FLIPR instrument and at room temperature by the addition of 25 µl D-PBS supplemented with different stimuli at concentrations corresponding to twice the desired final level.
For dose-responses analysis, stimuli were presented in duplicates at 10 different concentrations ranging from 60 nM to 30 µM. Activities were normalized to the response obtained with 400 mM D-fructose, a concentration that elicits maximum receptor response. EC50s were determined using a non-linear regression algorithm (using a Senomyx, Inc. software), where the Hill slope, bottom asymptotes and top asymptotes were allow to vary.

Which EC50 does the source give for `CC1CCCC(NC(=O)c2ccnc(Cl)c2)C1C` (centres unmarked) [Example E44, 2-chloro-N-(2,3-dimethylcyclohexyl)isonicotinamide] here?
Its EC50 is 1080 nM.

With `Cc1c(F)c(F)c(C(=O)NC2CCCCC2)c(F)c1F` [Example E45, N-cyclohexyl-2,3,5,6-tetrafluoro-4-methylbenzamide] as the compound, how does the EC50 read?
The EC50 was 1130 nM.

`Cc1c(F)c(F)c(C(=O)NC2CCCCCCC2)c(F)c1F` [Example E46, N-cyclooctyl-2,3,5,6-tetrafluoro-4-methylbenzamide] was tested. Which EC50 did it give?
The EC50 was 1250 nM.

How did the EC50 turn out when `Cc1c(F)c(F)c(C(=O)N[C@H](C)C(C)C)c(F)c1F` [Example E47, (R)-2,3,5,6-tetrafluoro-4-methyl-N-(3-methylbutan-2-yl)benzamide] was run?
Its EC50 is 1250 nM.

`COc1c(Cl)ccc(Cl)c1C(=O)NC1CCCC(C)C1C` (centres unmarked) [Example E48, 3,6-dichloro-N-(2,3-dimethylcyclohexyl)-2-methoxybenzamide] was tested. Which EC50 did it give?
Its EC50 is 1290 nM.

For `Cc1cc(C)c(C(=O)NC2CCCC(C)C2C)c(C)c1` (centres unmarked) [Example E50, N-(2,3-dimethylcyclohexyl)-2,4,6-trimethylbenzamide], which EC50 is on record?
Its EC50 is 1410 nM.

With `O=C(NC1CCc2ccccc21)c1cccc(Cl)c1O` (centres unmarked) [Example E51, 3-chloro-N-(2,3-dihydro-1H-inden-1-yl)-2-hydroxybenzamide] as the compound, how does the EC50 read?
Its EC50 is 1490 nM.

Which EC50 does the source give for `Cc1ccc2ccccc2c1C(=O)NC1CCCCC1C` (centres unmarked) [Example E52, 2-methyl-N-(2-methylcyclohexyl)-1-naphthamide] here?
Its EC50 is 1520 nM.

With `CC1CCCCC1NC(=O)c1ccc(F)c(Cl)c1` (centres unmarked) [Example E53, 3-chloro-4-fluoro-N-(2-methylcyclohexyl)benzamide] as the compound, how does the EC50 read?
The EC50 was 1700 nM.

Which EC50 does the source give for `CC1CCCCC1NC(=O)c1ccc(Cl)c(Cl)c1` (centres unmarked) [Example E54, 3,4-dichloro-N-(2-methylcyclohexyl)benzamide] here?
Its EC50 is 1830 nM.

Which EC50 does the source give for `CC1CCCC(NC(=O)c2cncc(Br)c2)C1C` (centres unmarked) [Example E55, 5-bromo-N-(2,3-dimethylcyclohexyl)mcotmamide] here?
The EC50 was 1890 nM.

`CC1CCCCC1NC(=O)c1ccnc(Cl)c1` (centres unmarked) [Example E56, 2-chloro-N-(2-methylcyclohexyl)isonicotinamide] was tested. Which EC50 did it give?
The EC50 was 1920 nM.

How did the EC50 turn out when `Cc1cccc(C(=O)NC2CCCCC2C)c1Cl` (centres unmarked) [Example E57, 2-chloro-3-methyl-N-(2-methylcyclohexyl)benzamide] was run?
The EC50 was 1950 nM.

How did the EC50 turn out when `Cc1c(F)c(F)c(C(=O)NC2CCCC2)c(F)c1F` [Example E58, N-cyclopentyl-2,3,5,6-tetrafluoro-4-methylbenzamide] was run?
Its EC50 is 2230 nM.

`CC1CCCCC1NC(=O)c1cccc(C(F)(F)F)c1` (centres unmarked) [Example E59, N-(2-methylcyclohexyl)-3-(trifluoromethyl)benzamide] was tested. Which EC50 did it give?
Its EC50 is 2340 nM.

How did the EC50 turn out when `CC1CCC(NC(=O)c2ccc(F)c(C(F)(F)F)c2)CC1` (centres unmarked) [Example E60, 4-fluoro-N-(4-methylcyclohexyl)-3-(trifluoromethyl)benzamide] was run?
Its EC50 is 2370 nM.

For `CC1CCCCC1NC(=O)c1cccc(C(F)(F)F)c1F` (centres unmarked) [Example E61, 2-fluoro-N-(2-methylcyclohexyl)-3-(trifluoromethyl)benzamide], which EC50 is on record?
The EC50 was 2400 nM.

`CC1CCCCC1NC(=O)c1cncc(Br)c1` (centres unmarked) [Example E62, 5-bromo-N-(2-methylcyclohexyl)nicotinamide] was tested. Which EC50 did it give?
Its EC50 is 2420 nM.

With `Cc1cccc(C(=O)NC2CCCCC2C)c1C` (centres unmarked) [Example E63, 2,3-dimethyl-N-(2-methylcyclohexyl)benzamide] as the compound, how does the EC50 read?
Its EC50 is 2600 nM.

How did the EC50 turn out when `CC1CCCC(NC(=O)c2c(Cl)cccc2Cl)C1C` (centres unmarked) [Example E64, 2,6-dichloro-N-(2,3-dimethylcyclohexyl)benzamide] was run?
The EC50 was 2770 nM.

With `CC1CCCCC1NC(=O)c1ccnc(F)c1` (centres unmarked) [Example E65, 2-fluoro-N-(2-methylcyclohexyl)isonicotinamide] as the compound, how does the EC50 read?
Its EC50 is 2830 nM.

Which EC50 does the source give for `Cc1cc(C)c(C(=O)NC2CCCCC2)c(C)c1` [Example E66, N-cyclohexyl-2,4,6-trimethylbenzamide] here?
The EC50 was 2860 nM.

With `Cc1ccc(C(=O)NC2CCC(C)CC2)c(O)c1` (centres unmarked) [Example E67, 2-hydroxy-4-methyl-N-(4-methylcyclohexyl)benzamide] as the compound, how does the EC50 read?
Its EC50 is 2980 nM.

For `Cc1c(F)c(F)c(C(=O)NCC(C)C)c(F)c1F` [Example E69, 2,3,5,6-tetrafluoro-N-isobutyl-4-methylbenzamide], which EC50 is on record?
Its EC50 is 3190 nM.

With `Cc1c(F)c(F)c(C(=O)NC(C)CCC(C)C)c(F)c1F` (centres unmarked) [Example E70, 2,3,5,6-tetrafluoro-4-methyl-N-(5-methylhexan-2-yl)benzamide] as the compound, how does the EC50 read?
Its EC50 is 3200 nM.

For `CC1CCCCC1NC(=O)c1ccc2nonc2c1` (centres unmarked) [Example E71], which EC50 is on record?
The EC50 was 3330 nM.

With `COc1cccc(C(=O)NC2CCC(C)CC2)c1O` (centres unmarked) [Example E72, 2-hydroxy-3-methoxy-N-(4-methylcyclohexyl)benzamide] as the compound, how does the EC50 read?
The EC50 was 3350 nM.

Which EC50 does the source give for `CC12CCC(C1)C(C)(C)C2NC(=O)c1cccs1` (centres unmarked) [Example E73, Thiophene-2-carboxylic acid (1,3,3-trimethyl-bicyclo[2.2.1]hept-2-yl)-amide] here?
Its EC50 is 3360 nM.

Which EC50 does the source give for `CC1CCCC(NC(=O)Cc2c(F)c(F)c(F)c(F)c2F)C1C` (centres unmarked) [Example E74, N-(2,3-dimethylcyclohexyl)-2-(perfluorophenyl)acetamide] here?
The EC50 was 3620 nM.

`CCC(CC)NC(=O)c1cccc(Cl)c1Cl` [Example E75, 2,3-dichloro-N-(pentan-3-yl)benzamide] was tested. Which EC50 did it give?
Its EC50 is 3780 nM.

Which EC50 does the source give for `CC1CCCC(NC(=O)c2cccc(Cl)c2Cl)C1C` (centres unmarked) [Example E76, 2,3-dichloro-N-(2,3-dimethylcyclohexyl)benzamide] here?
Its EC50 is 3990 nM.

`CC1CCCC(NC(=O)c2cc(F)ccc2F)C1C` (centres unmarked) [Example E77, N-(2,3-dimethylcyclohexyl)-2,5-difluorobenzamide] was tested. Which EC50 did it give?
Its EC50 is 4110 nM.

How did the EC50 turn out when `CC(C)C(NC(=O)c1c(O)cccc1O)C(C)C` [Example E79, N-(2,4-dimethylpentan-3-yl)-2,6-dihydroxybenzamide] was run?
Its EC50 is 4280 nM.

With `Cc1c(Cl)cccc1C(=O)NC1CCCCC1C` (centres unmarked) [Example E80, 3-chloro-2-methyl-N-(2-methylcyclohexyl)benzamide] as the compound, how does the EC50 read?
The EC50 was 4290 nM.

Which EC50 does the source give for `CC1CCCCC1NC(=O)c1ccc(F)c(F)c1` (centres unmarked) [Example E81] here?
Its EC50 is 4370 nM.

`Cc1cc(C)cc(C(=O)NC2CCCCC2C)c1` (centres unmarked) [Example E82, 3,5-dimethyl-N-(2-methylcyclohexyl)benzamide] was tested. Which EC50 did it give?
The EC50 was 4480 nM.

Which EC50 does the source give for `CCOc1ccc(CCNC(=O)c2ccnn2C)cc1` [Example E83, N-(4-ethoxyphenethyl)-1-methyl-i H-pyrazole-5-carboxamide] here?
The EC50 was 4680 nM.

For `COc1c(Cl)ccc(Cl)c1C(=O)Nc1ccccc1F` [Example E84, 3,6-dichloro-N-(2-fluorophenyl)-2-methoxybenzamide], which EC50 is on record?
The EC50 was 830 nM.

Which EC50 does the source give for `COc1cc(Cl)c(NC(=O)c2cccc(C(F)(F)F)c2)c(OC)c1` [Example E85, N-(2-Chloro-4,6-dimethoxy-phenyl)-3-trifluoromethyl-benzamide] here?
The EC50 was 1420 nM.

How did the EC50 turn out when `COc1c(Cl)cc(C(=O)Nc2ccc(C)cc2C)cc1Cl` [Example E86, 3,5-dichloro-N-(2,4-dimethylphenyl)-4-methoxybenzamide] was run?
The EC50 was 1480 nM.

Which EC50 does the source give for `O=C(Nc1nnc(C(F)(F)F)s1)c1ccc(F)c(Cl)c1` [Example E87, 3-Chloro-4-fluoro-N-(5-trifluoromethyl-[1,3,4]thiadiazol-2-yl)-benzamide] here?
The EC50 was 1550 nM.
